The results in this text go back to patent US20260053834A1, “COVALENT MODIFIERS OF AKT1 AND USES THEREOF” (Terremoto Biosciences, Inc., priority 2023, published 2026).

Bounds are passed on as bounds.

Assay [1] addresses T1, AKT2 (Homo sapiens, UniProt P31751).
T1 construct: expressed in transfected cells; host or cells: HEK293
Briefly: Live cell target engagement by NanoBRET competitive probe displacement, AKT2. Type of assay: binding. Particulars: transfected HEK293 cells, 2 h at 37° C., read-out: AKT2 IC50: GeoMean IC50. Background: In BRET a luciferase serves as donor, and the signal depends on an acceptor being close.

In assay [2] the target is T2, AKT1 E17K (Homo sapiens, UniProt P31749, E17K).
T2 construct: expressed in transfected cells; host or cells: HEK293
Briefly: Live cell target engagement by NanoBRET competitive probe displacement, AKT1 E17K. To be noted: transfected HEK293 cells, 2 h at 37° C., read-out: AKT1 E17K IC50: GeoMean IC50. Type of assay: binding.

In assay [3] the test system is LAPC4 prostate cancer cells, which express the AKT1 E17K allele. The assay can be described thus: Antiproliferative effects in LAPC4 cells (CellTiter Glo, 72 h). In kind it is cell-based. Particulars: Homo sapiens, LAPC4, 72 h, read-out: LAPC4 proliferation IC50: GeoMean IC50. In outline:
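IC50 values come from Hill-equation fitting of luminescence (cellular ATP) after 72 h compound exposure. Treated wells held 1,000 cells each, with compound delivered as DMSO dilutions. Culture medium was IMDM plus 12% FBS.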

The target in assay [4] is T3, AKT1 WT (Homo sapiens, UniProt P31749).
T3 construct: expressed in transfected cells; host or cells: HEK293
The assay can be described thus: Live cell target engagement by NanoBRET competitive probe displacement, AKT1 WT. In kind it is binding. To be noted: transfected HEK293 cells, 2 h at 37° C., read-out: AKT1 WT IC50: GeoMean IC50.

T1 sequence (P31751 whole entry): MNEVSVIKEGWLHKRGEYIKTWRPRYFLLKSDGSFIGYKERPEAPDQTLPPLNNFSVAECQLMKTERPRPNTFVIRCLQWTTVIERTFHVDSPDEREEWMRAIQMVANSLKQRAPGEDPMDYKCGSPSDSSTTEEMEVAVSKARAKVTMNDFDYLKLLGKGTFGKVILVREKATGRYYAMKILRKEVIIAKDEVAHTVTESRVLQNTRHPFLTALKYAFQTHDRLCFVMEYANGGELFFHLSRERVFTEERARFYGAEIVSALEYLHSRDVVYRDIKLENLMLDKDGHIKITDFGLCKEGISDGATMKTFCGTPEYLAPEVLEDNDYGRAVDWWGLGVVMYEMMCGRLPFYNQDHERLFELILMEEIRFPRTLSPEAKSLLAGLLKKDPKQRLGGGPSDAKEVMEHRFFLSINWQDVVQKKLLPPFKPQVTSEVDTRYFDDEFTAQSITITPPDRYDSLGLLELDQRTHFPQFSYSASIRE
T3 sequence (P31749 whole entry): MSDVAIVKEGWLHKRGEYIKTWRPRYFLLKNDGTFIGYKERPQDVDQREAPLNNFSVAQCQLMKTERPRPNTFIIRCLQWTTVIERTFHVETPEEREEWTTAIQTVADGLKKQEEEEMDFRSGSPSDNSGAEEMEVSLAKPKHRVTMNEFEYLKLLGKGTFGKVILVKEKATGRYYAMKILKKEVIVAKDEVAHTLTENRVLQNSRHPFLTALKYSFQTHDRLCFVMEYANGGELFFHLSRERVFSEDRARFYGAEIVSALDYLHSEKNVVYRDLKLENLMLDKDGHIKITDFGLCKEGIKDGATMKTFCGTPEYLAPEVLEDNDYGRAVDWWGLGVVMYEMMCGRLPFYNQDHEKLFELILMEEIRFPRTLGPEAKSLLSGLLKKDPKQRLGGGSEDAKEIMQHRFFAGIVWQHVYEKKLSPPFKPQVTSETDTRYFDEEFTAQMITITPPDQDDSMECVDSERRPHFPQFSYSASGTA
T2 sequence (P31749 whole entry E17K): as the sequence (P31749 whole entry) above, with E17K counted along it

As for `Cc1cnn(-c2ccc3nc(-c4cccnc4N)n(-c4ccc5c(c4)CC[C@@H]5NC(=O)c4ccc(O)c(C=O)c4)c3n2)c1` [Example 77, (S)—N-(5-(2-(2-aminopyridin-3-yl)-5-(4-methyl-1H-pyrazol-1-yl)-3H imidazo[4,5-b]pyridin-3-yl)-2,3-dihydro-1H-inden-1-yl)-3-formyl-4-hydroxybenzamide], the IC50 fell in the range of 100 to 2000 nM in assay [1], 10 to 100 nM in assay [2], 100 to 2000 nM in assay [3] and 10 to 100 nM in assay [4].

For `CC(=O)Nc1c(F)cc(C(=O)N[C@H]2CCc3cc(-n4c(-c5cccnc5N)nc5ccc(-c6ccccc6)nc54)ccc32)cc1C=O` [Example 64, N-[(1S)-5-[2-(2-aminopyridin-3-yl)-5-phenylimidazo[4,5-b]pyridin-3-yl]-2,3-dihydro-1H-inden-1-yl]-4-acetamido-3-fluoro-5-formylbenzamide], the IC50 in assay [1], in assay [2], in assay [3] and in assay [4] was 10 to 100 nM in each case.

As for `Nc1ncccc1-c1nc2ccc(-c3nccnc3F)nc2n1-c1ccc2c(c1)CC[C@@H]2NC(=O)c1ccc(O)c(C=O)c1` [Example 109, N-[(1S)-5-[2-(2-aminopyridin-3-yl)-5-(3-fluoropyrazin-2-yl)imidazo[4,5-b]pyridin-3-yl]-2,3-dihydro-1H-inden-1-yl]-3-formyl-4-hydroxybenzamide], the IC50 lay within 100 to 2000 nM in assay [1], 10 to 100 nM in assay [2], 100 to 2000 nM in assay [3] and 100 to 2000 nM in assay [4].

In the case of `Nc1ncccc1-c1nc2ccc(-c3ccccc3)nc2n1-c1ccc2c(c1)CC[C@@H]2NC(=O)c1cc(Cl)c(O)c(C=O)c1` [Example 11, N-[(1S)-5-[2-(2-aminopyridin-3-yl)-5-phenylimidazo[4,5-b]pyridin-3-yl]-2,3-dihydro-1H-inden-1-yl]-3-chloro-5-formyl-4-hydroxybenzamide], the IC50 is 100 to 2000 nM in assay [1], 10 to 100 nM in assay [2], 100 to 2000 nM in assay [3] and 10 to 100 nM in assay [4].

Turning to `Nc1ncccc1-c1nc2ccc(-n3cccn3)nc2n1-c1ccc2c(c1)CC[C@@H]2NC(=O)c1cc(C=O)c(O)cc1F` [Example 105, (S)—N-(5-(2-(2-aminopyridin-3-yl)-5-(1H-pyrazol-1-yl)-3H-imidazo[4,5-b]pyridin-3-yl)-2,3-dihydro-1H-inden-1-yl)-2-fluoro-5-formyl-4-hydroxybenzamide], the IC50 in assay [1] is 100 to 2000 nM; in assay [2], 10 to 100 nM; in assay [3] it was 10 to 100 nM; in assay [4] it was 10 to 100 nM.

For `Nc1ncccc1-c1nc2cccnc2n1-c1ccc2c(c1)CC[C@@H]2NC(=O)c1ccc(O)c(C=O)c1` [Example 15, N-[(1S)-5-[2-(2-aminopyridin-3-yl)imidazo[4,5-b]pyridin-3-yl]-2,3-dihydro-1H-inden-1-yl]-3-formyl-4-hydroxybenzamide], the IC50 in assay [1] was no less than 2000 nM; in assay [2] it was 10 to 100 nM; in assay [3] it was 100 to 2000 nM; in assay [4], 100 to 2000 nM.

With `COc1cc(-n2cccn2)nc2c1nc(-c1cccnc1N)n2-c1ccc2c(c1)CC[C@@H]2NC(=O)c1ccc(O)c(C=O)c1` [Example 200, N-[(1S)-5-[2-(2-aminopyridin-3-yl)-7-methoxy-5-(pyrazol-1-yl)imidazo[4,5-b]pyridin-3-yl]-2,3-dihydro-1H-inden-1-yl]-3-formyl-4-hydroxybenzamide], the IC50 fell in the range of 100 to 2000 nM in assay [1], 10 to 100 nM in assay [2], 100 to 2000 nM in assay [3] and 10 to 100 nM in assay [4].

`N#Cc1ccc2nc(-c3cccnc3N)n(-c3ccc4c(c3)CC[C@@H]4NC(=O)c3ccc(O)c(C=O)c3)c2n1` [Example 79, (S)—N-(5-(2-(2-aminopyridin-3-yl)-5-cyano-3H-imidazo[4,5-b]pyridin-3-yl)-2,3-dihydro-1H-inden-1-yl)-3-formyl-4-hydroxybenzamide]: the IC50 in assay [1] was no less than 2000 nM; in assay [2], 100 to 2000 nM; in assay [3], no less than 2000 nM; in assay [4], 100 to 2000 nM.

As to `CS(=O)(=O)Nc1cc(-n2cccn2)nc2c1nc(-c1cccnc1N)n2-c1ccc2c(c1)CC[C@@H]2NC(=O)c1ccc(O)c(C=O)c1` [Example 232, N-[(1S)-5-[2-(2-aminopyridin-3-yl)-7-methanesulfonamido-5-(pyrazol-1-yl)imidazo[4,5-b]pyridin-3-yl]-2,3-dihydro-1H-inden-1-yl]-3-formyl-4-hydroxybenzamide], the IC50 in assay [1], in assay [2], in assay [3] and in assay [4] was no less than 2000 nM each time.

Take `COc1cnc(-c2ccc3nc(-c4cccnc4N)n(-c4ccc5c(c4)CC[C@@H]5NC(=O)c4ccc(O)c(C=O)c4)c3n2)cn1` [Example 71, (S)—N-(5-(2-(2-aminopyridin-3-yl)-5-(5-methoxypyrazin-2-yl)-3H-imidazo[4,5-b]pyridin-3-yl)-2,3-dihydro-1H-inden-1-yl)-3-formyl-4-hydroxybenzamide]: the IC50 in assay [1] lay within 100 to 2000 nM; in assay [2] it was 10 to 100 nM; in assay [3] it was 10 to 100 nM; in assay [4] it was 10 to 100 nM.

With `COc1cnn(-c2ccc3nc(-c4cccnc4N)n(-c4ccc5c(c4)CC[C@@H]5NC(=O)c4ccc(O)c(C=O)c4)c3n2)c1` [Example 83, N-[(1S)-5-[2-(2-aminopyridin-3-yl)-5-(4-methoxypyrazol-1-yl)imidazo[4,5-b]pyridin-3-yl]-2,3-dihydro-1H-inden-1-yl]-3-formyl-4-hydroxybenzamide], the IC50 in assay [1] lay in the range of 100 to 2000 nM; in assay [2], 10 to 100 nM; in assay [3], 100 to 2000 nM; in assay [4], 10 to 100 nM.

Consider `CN(C)C(=O)Nc1ccc(C(=O)N[C@H]2CCc3cc(-n4c(-c5cccnc5N)nc5ccc(-n6cccn6)nc54)ccc32)cc1C=O` [Example 104, N-[(1S)-5-[2-(2-aminopyridin-3-yl)-5-(pyrazol-1-yl)imidazo[4,5-b]pyridin-3-yl]-2,3-dihydro-1H-inden-1-yl]-4-[(dimethylcarbamoyl)amino]-3-formylbenzamide], for which the IC50 in assay [1] was 100 to 2000 nM; in assay [2], less than 10 nM; in assay [3] it was less than 10 nM; in assay [4] it was 10 to 100 nM.

Consider `Cc1cc(-c2nccs2)nc2c1nc(-c1cccnc1N)n2-c1ccc2c(c1)CC[C@@H]2NC(=O)c1ccc(O)c(C=O)c1` [Example 180, N-[(1S)-5-[2-(2-aminopyridin-3-yl)-7-methyl-5-(1,3-thiazol-2-yl)imidazo[4,5-b]pyridin-3-yl]-2,3-dihydro-1H-inden-1-yl]-3-formyl-4-hydroxybenzamide], for which the IC50 in assay [1], in assay [2], in assay [3] and in assay [4] was 10 to 100 nM in each case.

For the compound `Nc1ncccc1-c1nc2ccc(-n3nccn3)nc2n1-c1ccc2c(c1)CC[C@@H]2NC(=O)c1cc(F)c(O)c(C=O)c1` [Example 115, N-[(1S)-5-[2-(2-aminopyridin-3-yl)-5-(1,2,3-triazol-2-yl)imidazo[4,5-b]pyridin-3-yl]-2,3-dihydro-1H-inden-1-yl]-3-fluoro-5-formyl-4-hydroxybenzamide], the IC50 in assay [1] is 100 to 2000 nM; in assay [2], 10 to 100 nM; in assay [3] it was 10 to 100 nM; in assay [4], 10 to 100 nM.
